From PMC5547389, “Structure-activity relationships and molecular docking studies of chromene and chromene based azo chromophores: A novel series of potent antimicrobial and anticancer agents” (EXCLI Journal, 2017)
Values after ≈ are worked out from the molar mass of the structure shown.

Key:
[1] = tested on: human hepatocellular carcinoma (HEPG-2); assay: Cytotoxic screening; type: cell-based; settings: HepG2, read-out: IC50 HepG-2
Protocol: (§1) Human colon carcinoma (HCT-116), human hepatocellular carcinoma (HEPG-2), adenocarcinomic human alveolar basal epithelial cell (A-549), and human breast adenocarcinoma (MCF-7) cell lines were obtained from the American Type Culture Collection (ATCC, Rockville, MD). The cells were grown on RPMI-1640 medium supplemented with 10 % inactivated fetal calf serum and 50 µg/ml gentamycin. The cells were maintained at 37 °C in a humidified atmosphere with 5 % CO2 and were subcultured two to three times a week. Potential cytotoxicity of the compounds was evaluated on tumor cells using the method of Gangadevi and Muthumary (2007[21]) (Klancnik et al., 2010[36]). The cells were grown as monolayers in growth RPMI-1640. The monolayers of 104 cells adhered at the bottom of the wells in a 96-well microtiter plate incubated for 24 h at 37 °C in a humidified incubator with 5 % CO2. The monolayers were then washed with sterile phosphate buffered saline (0.01 M pH 7.2) and simultaneously the cells were treated with 100 µL from different dilutions of tested sample in fresh maintenance medium and incubated at 37 °C. A control of untreated cells was made in the absence of tested sample. Positive controls containing doxorubicin were also tested as a reference drug for comparison. Six wells were used for each concentration of the test sample. Every 24 hours an observation under the inverted microscope was made. The number of the surviving cells was determined by staining the cells with crystal violet (Mosmann, 1983[42]; Gangadevi and Muthumary, 2007[21]) followed by cell lysing using 33 % glacial acetic acid and reading the absorbance at 590 nm using microplate reader (SunRise, TECAN, Inc, USA) after well mixing. The absorbance values from untreated cells were considered as 100 % proliferation. The number of viable cells was determined using microplate reader as previously mentioned before and the percentage of […] was calculated as [1-(ODt/ODc)] x 100 % where ODt is the mean optical density of wells treated with the tested sample and ODc is the mean optical density of untreated cells. The relation between surviving cells and drug concentration was plotted to get the survival curve of each tumor cell line after treatment with the specified compound. The 50 % inhibitory concentration (IC50), the concentration required to cause toxic effects in 50 % of intact cells, was estimated from graphic plots.
(§2) The in vitro cytotoxic activity was performed by MTT assay (Mosmann, 1983[42]; Alley et al., 1988[6]) against three human carcinoma cell lines: Human colon carcinoma (HCT-116), human breast adenocarcinoma (MCF-7), and human hepatocellular carcinoma (HEPG-2).

[2] = tested on: human breast adenocarcinoma (MCF-7); assay: Cytotoxic screening; type: cell-based; settings: Homo sapiens, MCF7; read-out: IC50 MCF-7
Protocol: as §1, §2

[3] = tested on: Human colon carcinoma (HCT-116); assay: Cytotoxic screening; type: cell-based; settings: Homo sapiens, HCT-116; read-out: IC50 HCT-116
Protocol: as §1, §2

[4] = tested on: Pseudomonas aeruginosa (RCMB 010043); assay: MIC by serial dilution method; type: cell-based; settings: RCMB010043, Gm-ve, read-out: Minimum inhibitory concentration, MIC, P.A
Protocol: (§3) All the newly synthesized compounds described in this report were screened for both antibacterial and antifungal activity via the reported agar diffusion well method (Vanden Berghe and Vlietinck, 1991[62]). The inhibition zones and minimum inhibitory concentrations (MIC) were determined by the serial dilution method (Cappuccino and Sherman, 1999[12]). The antimicrobial activity of the synthesized compounds was tested against a broad panel of microorganisms including two Gram-positive bacteria: Streptococcus pneumoniae (RCMB 010010) and Bacillus subtilis (RCMB 010067), two Gram-negative bacteria: Pseudomonas aeruginosa (RCMB 010043) and Escherichia coli (RCMB 010052), and four fungi: Aspergillus fumigatus (RCMB 02568), Syncephalastrum racemosum (RCMB 05922), Geotricum candidum (RCMB 05097), and Candida albicans (RCMB 05036). Ampicillin, ciprofloxacin, gentamicin and amphotericin B were used as positive control drugs (Atta-ur-Rahman and Thomsen, 2001[7]; Smania et al., 1999[57]). […] While in the case of Gm-ve bacteria, they had weak activity. In addition, certain strains of fungi were sensitive to tested compounds with an IZ range from 12-25 except Candida albicans.

[5] = tested on: Syncephalastrum racemosum (RCMB 05922); assay: MIC by serial dilution method; type: cell-based; settings: RCMB05922, fungi, read-out: Minimum inhibitory concentration, MIC, S.R
Protocol: as §3

[6] = tested on: Bacillus subtilis (RCMB 010067); assay: MIC by serial dilution method; type: cell-based; settings: RCMB010067, Gm+ve, read-out: Minimum inhibitory concentration, MIC, B.S
Protocol: as §3

[7] = tested on: Aspergillus fumigatus (RCMB 02568); assay: MIC by serial dilution method; type: cell-based; settings: RCMB02568, fungi, read-out: Minimum inhibitory concentration, MIC, A.F
Protocol: as §3

[8] = tested on: Streptococcus pneumoniae (RCMB 010010); assay: MIC by serial dilution method; type: cell-based; settings: RCMB010010, Gm+ve, read-out: Minimum inhibitory concentration, MIC, S.P
Protocol: as §3

[9] = tested on: Geotricum candidum (RCMB 05097); assay: MIC by serial dilution method; type: cell-based; settings: fungi; read-out: Minimum inhibitory concentration, MIC, G.C
Protocol: as §3

[10] = tested on: Escherichia coli (RCMB 010052); assay: MIC by serial dilution method; type: cell-based; settings: RCMB010052, Gm-ve, read-out: Minimum inhibitory concentration, MIC, E.C
Protocol: as §3

[11] = tested on: Pseudomonas aeruginosa (RCMB 010043); assay: Well diffusion assay (inhibition zone); type: cell-based; settings: RCMB010043, 5 mg/mL in DMSO, Gm-ve, read-out: Inhibition Zone (IZ) diameter, P.A
Protocol: (§4) The microorganism inoculums were uniformly spread using sterile cotton swabs on a sterile Petri dish malt extract agar (for fungi) and nutrient agar (for bacteria). One hundred cubic millimeters of each sample was added to each well (10 mm-diameter holes were cut in the agar gel, 20 mm apart from one another). The systems were incubated for 24-48 h at 37 °C (for bacteria) and at 28 °C (for fungi). After incubation, the microorganism growth was observed. Inhibition zones of the bacterial and fungal growth were measured in millimeters. Tests were performed in triplicate (Cappuccino and Sherman, 1999[12]; Vanden Berghe and Vlientinck, 1991[62]).
as §3

[12] = tested on: Syncephalastrum racemosum (RCMB 05922); assay: Well diffusion assay (inhibition zone); type: cell-based; settings: RCMB05922, 5 mg/mL in DMSO, fungi, read-out: Inhibition Zone (IZ) diameter, S.R
Protocol: as §4, §3

[13] = tested on: Bacillus subtilis (RCMB 010067); assay: Well diffusion assay (inhibition zone); type: cell-based; settings: RCMB010067, 5 mg/mL in DMSO, Gm+ve, read-out: Inhibition Zone (IZ) diameter, B.S
Protocol: as §4, §3

[14] = tested on: Aspergillus fumigatus (RCMB 02568); assay: Well diffusion assay (inhibition zone); type: cell-based; settings: RCMB02568, 5 mg/mL in DMSO, fungi, read-out: Inhibition Zone (IZ) diameter, A.F
Protocol: as §4, §3

[15] = tested on: Streptococcus pneumoniae (RCMB 010010); assay: Well diffusion assay (inhibition zone); type: cell-based; settings: RCMB010010, 5 mg/mL in DMSO, Gm+ve, read-out: Inhibition Zone (IZ) diameter, S.P
Protocol: as §4, §3

[16] = tested on: Geotricum candidum (RCMB 05097); assay: Well diffusion assay (inhibition zone); type: cell-based; settings: 5 mg/mL in DMSO; fungi; read-out: Inhibition Zone (IZ) diameter, G.C
Protocol: as §4, §3

[17] = tested on: Escherichia coli (RCMB 010052); assay: Well diffusion assay (inhibition zone); type: cell-based; settings: RCMB010052, 5 mg/mL in DMSO, Gm-ve, read-out: Inhibition Zone (IZ) diameter, E.C
Protocol: as §4, §3

HCT-116, MCF-7, HEPG-2 = assay: Cytotoxic screening, statements over the three cell lines; type: cell-based; settings: Homo sapiens; HCT-116, MCF-7, HEPG-2 together; read-out: IC50, range over the three cell lines
Protocol: as §1, §2

Compound | melting point [°C] | MIC [4] [µg/mL] | MIC [5] [µg/mL] | MIC [6] [µg/mL] | MIC [7] [µg/mL] | MIC [8] [µg/mL] | MIC [9] [µg/mL] | MIC [10] [µg/mL] | IC50 [1] [µg/mL] | IC50 [2] [µg/mL] | IC50 [3] [µg/mL] | zone of inhibition at 5000 µg/mL [11] [mm] | zone of inhibition at 5000 µg/mL [12] [mm] | zone of inhibition at 5000 µg/mL [13] [mm] | zone of inhibition at 5000 µg/mL [14] [mm] | zone of inhibition at 5000 µg/mL [15] [mm] | zone of inhibition at 5000 µg/mL [16] [mm] | zone of inhibition at 5000 µg/mL [17] [mm] | IC50 (HCT-116, MCF-7, HEPG-2) [µg/mL]
Nc1cccc2c(O)cccc12 [compound 5, 5-amino-1-naphthol] | – | – | – | – | – | – | – | – | 15.2 (≈ 95.5 µM) | 8.88 (≈ 55.8 µM) | 11.5 (≈ 72.2 µM) | – | 14.5 | 18.9 | 18.3 | 16.3 | 19.5 | 17.2 | 9 to 15 (≈ 56.5 to 94.2 µM)
COc1ccc(C2C(C#N)=C(N)Oc3c(N)cc4ccccc4c32)cc1 (stereo not shown) [4d, 3,5-diamino-1-(4-methoxy-phenyl)-1H-benzo[f]chromene-2-carbonitrile] | 183 | 125 (≈ 364 µM) | 62.5 (≈ 182 µM) | 0.007 (≈ 0.0204 µM) | 0.98 (≈ 2.85 µM) | 7.81 (≈ 22.7 µM) | 0.06 (≈ 0.175 µM) | 15.6 (≈ 45.5 µM) | 2.64 (≈ 7.69 µM) | 4.68 (≈ 13.6 µM) | 4.79 (≈ 13.9 µM) | 12.3 | 16.5 | 29.8 | 22.3 | 19.5 | 25.8 | 17.6 | –

More lines, main results first:

melting point [°C] | MIC [4] [µg/mL] | MIC [5] [µg/mL] | MIC [6] [µg/mL] | MIC [7] [µg/mL] | MIC [8] [µg/mL] | MIC [9] [µg/mL] | MIC [10] [µg/mL] | Compound | IC50 [1] [µg/mL] | IC50 [2] [µg/mL] | IC50 [3] [µg/mL] | zone of inhibition at 5000 µg/mL [11] [mm] | zone of inhibition at 5000 µg/mL [12] [mm] | zone of inhibition at 5000 µg/mL [13] [mm] | zone of inhibition at 5000 µg/mL [14] [mm] | zone of inhibition at 5000 µg/mL [15] [mm] | zone of inhibition at 5000 µg/mL [16] [mm] | zone of inhibition at 5000 µg/mL [17] [mm] | IC50 (HCT-116, MCF-7, HEPG-2) [µg/mL]
260 | 31.2 (≈ 77.7 µM) | 3.9 (≈ 9.69 µM) | 0.49 (≈ 1.22 µM) | 0.98 (≈ 2.44 µM) | 0.98 (≈ 2.44 µM) | 0.98 (≈ 2.44 µM) | 3.9 (≈ 9.69 µM) | N#CC1=C(N)Oc2cc(O)c(N=Nc3ccc(O)cc3)cc2C1c1ccccc1F (stereo not shown) [13j, 2-Amino-4-(2-fluoro-phenyl)-7-hydroxy-6-(4-hydroxy-phenylazo)-4H-chromene-3-carbonitrile] | 47.2 (≈ 117 µM) | 44 (≈ 109 µM) | 49.1 (≈ 122 µM) | 16.3 | 18.7 | 21.9 | 20.6 | 21 | 21.2 | 19.8 | –
255 | 15.6 (≈ 35.5 µM) | 15.6 (≈ 35.5 µM) | 0.12 (≈ 0.272 µM) | 3.9 (≈ 8.85 µM) | 0.24 (≈ 0.545 µM) | 0.98 (≈ 2.22 µM) | 3.9 (≈ 8.85 µM) | CC(C)(C)c1ccc(C2C(C#N)=C(N)Oc3cc(O)c(N=Nc4ccc(O)cc4)cc32)cc1 (stereo not shown) [13i, 2-Amino-4-(4-tert-butyl-phenyl)-7-hydroxy-6-(4-hydroxy-phenylazo)-4H-chromene-3-carbonitrile] | 31.6 (≈ 71.7 µM) | 47 (≈ 107 µM) | 75.7 (≈ 172 µM) | 16.2 | 19.2 | 22.4 | 17.3 | 21.3 | 20.3 | 17.2 | –
243 | 3.9 (≈ 9.06 µM) | 3.9 (≈ 9.06 µM) | 0.06 (≈ 0.139 µM) | 0.98 (≈ 2.28 µM) | 0.12 (≈ 0.279 µM) | 0.49 (≈ 1.14 µM) | 3.9 (≈ 9.06 µM) | N#CC1=C(N)Oc2cc(O)c(N=Nc3ccc(C(=O)O)cc3)cc2C1c1ccccc1F (stereo not shown) [13e, 4-[2-Amino-3-cyano-4-(2-fluoro-phenyl)-7-hydroxy-4H-chromen-6-ylazo]-benzoic acid] | 20.5 (≈ 47.6 µM) | 27.9 (≈ 64.8 µM) | 46.7 (≈ 109 µM) | 19.3 | 19.3 | 25.2 | 21.3 | 23.6 | 21.8 | 19.3 | –
280 | 31.2 (≈ 77.7 µM) | 3.9 (≈ 9.69 µM) | 0.49 (≈ 1.22 µM) | 15.6 (≈ 38.8 µM) | 0.98 (≈ 2.44 µM) | 1.95 (≈ 4.85 µM) | 15.6 (≈ 38.8 µM) | N#CC1=C(N)Oc2cc(O)c(N=Nc3cccc(O)c3)cc2C1c1ccccc1F (stereo not shown) [13k, 2-Amino-4-(2-fluoro-phenyl)-7-hydroxy-6-(3-hydroxy-phenylazo)-4H-chromene-3-carbonitrile] | 41.8 (≈ 104 µM) | 44.1 (≈ 110 µM) | 71.4 (≈ 177 µM) | 17.1 | 17.1 | 24.3 | 19.4 | 22.6 | 21.3 | 18.6 | –
